Data set [1] concerns mouse sarcoma CCRF-S180 II (CCL-8). Description: Mouse non-metastatic cancer model, sarcoma CCL-8 s.c. in ICR mice. The settings on record: s.c. Day 1, 2, 3, 4, 7, 8, 9, 10, 11; dose 5 mg/kg, total dose 45 mg/kg. The format is in vivo. How it is done: Six-week-old female ICR and BALB/c mice were purchased from the University of Tartu Laboratory Animal Centre (Estonia). The mice were housed five to a cage, and under standard conditions (21-23° C., 12 h light: dark cycle), fed ad libitum (R3 diet, Lactamin AB, Kimstad, Sweden) and observed daily. The experimental procedures involving experimental animals were carried out in accordance with the guidelines of the European Community, local laws and policies, and were approved by the Latvian Animal Protection Ethical Committee, the Food and Veterinary Service, Riga, Latvia.
In vivo studies were performed utilizing the mouse sarcoma CCRF-S180 II (CCL-8) and Lewis lung carcinoma (LLC) cell line. All cell lines were purchased from ATCC. The cells were grown in Dulbecco's modified Eagle's medium (Sigma) supplemented with 10% fetal calf serum (Sigma).
ICR mice were subcutaneously inoculated in the back with 5×10^6 CCL-8 cells and BALB/c mice were inoculated with 1×10^6 LLC (Lewis Lung Carcinoma) cells, which were suspended in 0.1 mL of PBS on day zero of the study. The compounds dissolved in DMSO and then in 0.1 mL water (DMSO final concentration 1%) were injected s.c. Mice in the untreated group were similarly given doses of 0.1 mL of water with DMSO. Tumor volume (tumor volume V=[…], a is maximal and b the minimal tumor diameter) was recorded twice per week. The mice were examined every other day for diseases including appearance, weight and behavior. The mice were sacrificed at day 16 of the experiment by decapitation after ketamine/xylazine anesthesia.

Data set [2] is described as follows: Basal cytotoxicity test, Neutral Red Uptake (NRU) assay. The format is cell-based. The settings on record: for LD50 at 24 h: mouse, po, acute oral LD50 calculated from 3T3 NRU IC50 by regression formula, read-out: Basal cytotoxicity Estimated* LD50; for IC50 at 24 h: normal mouse embryo fibroblasts, read-out: Cytotoxicity IC50, 3T3. How it is done: (§1) In parallel, the borderline concentration relevant to the highest tolerated dose has been determined for each compound using the NIH 3T3 (mouse embryo fibroblasts) cell line and the basal cytotoxicity obtained has then been used to predict the starting doses for in vivo acute oral LD50 values in rodents.
(§2) the Neutral Red Uptake (NRU) assay was performed according to the standard protocol of Stokes modified by the NICEATM-ECVAM validation study. The NRU cytotoxicity assay procedure is based on the ability of viable cells to incorporate and bind Neutral Red, a supravitally dye. Balb/c 3T3 (Mouse Swiss Albino embryo fibroblast) cells (9000 cells/well) were placed into 96-well plates for 24 h in Dulbecco's modified Eagle's (DMEM) medium containing 5% fetal bovine serum. The cells were then exposed to the test compounds over a range of […] concentrations (1000, 316, 100, 31, 10, 3, 1 μg/ml) for 24 h. Untreated cells were used as a control. After 24 h, the medium was removed from all plates. Then, 250 μL of Neutral Red solution were added (0.05 mg/mL NR in DMEM 24 h pre-incubated at 37° C. and then filtered before use through 0.22-μm syringe filter). Plates were incubated for 3 h and then cells were washed three times with PBS. The dye within viable cells was released by extraction with a mixture of acetic acid, ethanol and water (1:50:49). Absorbance of Neutral Red was measured using a spectrophotometer multiplate reader (TECAN, Infinite M1000) at 540 nm. The percentage of living cells was calculated using the formula: OD (treated cells)*100/OD (control cells). The IC50 values were calculated using the programme Graph Pad Prism® 3.0.
(§3) Data from the in vitro tests were used for estimating the starting dose for acute oral systemic toxicity tests in rodents. […] The value is recalculated to mg/kg and compounds are evaluated in accordance with four toxicity categories: category 1: LD50≤5 mg/kg (highly toxic); category 2: 5<LD50≤50 mg/kg (moderately toxic); category 3: 50<LD50≤300 mg/kg (slightly toxic); category 4: 300<LD50≤2 000 mg/kg (practically non-toxic).

The subject of data set [3] is 3T3 (mouse embryo fibroblasts). The data set is described as above. It is filed as cell-based. Here is the method:
as §1, §2, §3

The subject of data set [4] is MES-SA (human uterus sarcoma). Description: In vitro cytotoxicity, MTT test. The settings on record: 72 h, read-out: Cytotoxicity IC50, MES-SA. The format is cell-based. Here is the method: (§4) Anticancer activity of selenopheno[h]chromenes was tested in vitro using cytotoxicity assay. […] About 2-9·10^4 cells/mL (depending on line nature) were placed in 96-well plates immediately after compounds were added to the wells. Untreated cells were used as a control. The plates were incubated for 72 h, 37° C., 5% CO2. The number of surviving cells was determined using 3-(4,5-dimethylthiazol-2-yl)-2,5-diphenyltetrazolinium bromide (MTT). MTT-test: after incubating culture medium was removed and 200 μL fresh medium with 10 mM HEPES was added in each well of the plate, than 20 μL MTT (2 mg/mL in HBSS) was added. After incubation (3 hr, 37° C., 5% CO2), the medium with MTT was removed and 200 μL DMSO were added at once to each sample. The samples were tested at 540 nm on Anthos HT II photometer.

The subject of data set [5] is HT-1080 (human fibrosarcoma). In words: In vitro cytotoxicity, MTT test. The settings on record: read-out: Cytotoxicity IC50, HT-1080. The format is cell-based. Here is the method: as §4
Background: Tetrazolium assays rely on reduction of a dye to a coloured formazan, in cell work by metabolically active cells.

The subject of a further data set is MG-22A (mouse hepatoma). In words: In vitro cytotoxicity, MTT test. The format is cell-based. The following applies: 72 h, read-out: Cytotoxicity IC50, MG-22A. Here is the method: as §4
Data set [6] has as its system HepG2 (human hepatocellular carcinoma). In words: In vitro cytotoxicity, MTT test. The format is cell-based. The following applies: read-out: Cytotoxicity IC50, HepG2. How it is done:
as §4

Data set [7] has as its system SH-SY5Y (human neuroblastoma). Description: In vitro cytotoxicity, MTT test. The settings on record: Homo sapiens, SH-SY5Y, 72 h, read-out: Cytotoxicity IC50, SHSY5Y. It is filed as cell-based. How it is done:
as §4

Data set [8] deals with A549 (human lung carcinoma). In words: In vitro cytotoxicity, MTT test. The format is cell-based. The following applies: Homo sapiens, A549, 72 h, read-out: Cytotoxicity IC50, A549. Here is the method:
as §4

The test system of data set [9] is MCF-7 (human breast adenocarcinoma, estrogen-positive). In words: In vitro cytotoxicity, MTT test. The format is cell-based. The settings on record: read-out: Cytotoxicity IC50, MCF-7. Here is the method: as §4
Data set [10] relates to MDA-MB-435s (human melanoma). Description: In vitro cytotoxicity, MTT test. The format is cell-based. The settings on record: 72 h, read-out: Cytotoxicity IC50, MDA-MB-435s. Here is the method: as §4
A further data set concerns CCL-8 (mouse sarcoma). In words: In vitro cytotoxicity, MTT test. It is filed as cell-based. The following applies: 72 h, read-out: Cytotoxicity IC50, CCL-8. How it is done: as §4
The subject of another data set is malignant tumor cells. Description: In vitro cytotoxicity on monolayer tumor cell lines (panel, summary in words). The format is cell-based. The following applies: summary of Table 1. Here is the method:
Anticancer activity of selenopheno[h]chromenes was tested in vitro using cytotoxicity assay. Thus, monolayer tumor cell lines MDA-MB-435s (human melanoma), MCF-7 (human breast adenocarcinoma, estrogen-positive), MES-SA (human uterus sarcoma), HT-1080 (human fibrosarcoma), A549 (human lung carcinoma), SH-SY5Y (human neuroblastoma), CCL-8 (mouse sarcoma), MG-22A (mouse hepatoma), and HepG2 (human hepatocellular carcinoma) were cultured in standard medium DMEM (Dulbecco's modified Eagle's medium) (“Sigma”) supplemented with 10% fetal bovine serum (“Sigma”). About 2-9·10^4 cells/mL (depending on line nature) were placed in 96-well plates immediately after compounds were added to the wells. Untreated cells were used as a control. The plates were incubated for 72 h, 37° C., 5% CO2. The number of surviving cells was determined using 3-(4,5-dimethylthiazol-2-yl)-2,5-diphenyltetrazolinium bromide (MTT). MTT-test: after incubating culture medium was removed and 200 μL fresh medium with 10 mM HEPES was added in each well of the plate, than 20 μL MTT (2 mg/mL in HBSS) was added. After incubation (3 hr, 37° C., 5% CO2), the medium with MTT was removed and 200 μL DMSO were added at once to each sample. The samples were tested at 540 nm on Anthos HT II photometer.

A further data set relates to 4T1 carcinoma cells. Description: 4T1 model of lung metastasis (tail vein) in Balb/c mice. The format is in vivo, mouse. The following applies: for Spleen weight increase: 4T1 i.v., control with tumor +147%; for % of the total area occupied by metastases, % (control = 100) / % of the total area occupied by metastases, Mean ± SD: s.c., days 1, 4, 7, 9, 11, 14. Here is the method: Compounds were administered s.c. at 1, 4, 7, 9, 11 and 14th days. 4T1 cells (10,000/0.1 ml PBS) were injected i.v. into syngeneic mice. The metastasis at day 16 are shown for each mouse, and averages are provided for illustration.
Balb/c mice were injected with 100,000 4T1 […] cancer cells into the tail vein and treatment started 24 hr later with subcutaneous (s.c.), intraperitoneal (i.p.) injections or oral administration (p.o.) of compounds according to the following scheme: 1, 4, 7, 9, 11 and 14th days in dose 20 or 40 mg/kg. Compounds were dissolved in DMSO and the solution were diluted by water (DMSO final concentration <1%). Mice in the control group were similarly given doses of 0.1 mL of water with DMSO. Twenty-one days later, all mice were anesthetized with ketamine/xylazine and euthanized, the mice were sacrificed spleens were excised from the mice and weighed. In each experiment, mice were weighed twice weekly.
(Lewis et al, Cancer Res, 2005, 65) Pulmonary metastases were enumerated by intra-tracheal injection of India ink (15% India Ink, 85% water, 3 drops NH4OH/100 ml). India ink injected lungs were washed in Feket's solution (300 ml 70% EtOH, 30 ml 37% formaldehyde, 5 ml glacial acetic acid) and then placed fresh Feket's solution overnight. […] White tumor nodules against a black lung background were measured.

Here are results for two compounds from US10561681B2, “Antimetastatic 2H-selenopheno[3,2-h]chromenes, synthesis thereof, and methods of using same agents” (Latvian Institute of Organic Synthesis, priority 2016, dated 2020).

Values joined by “and” are separate entries in the source; they are usually repeats but may differ in a detail not shown here. Equal entries are not always repeated. Where two headings read alike, the source gives them in different places. Marks after values point to notes of the source that are not given here.

Usually LD50 stands for the dose at which mortality reaches 50%. Usually IC50 stands for the concentration at which inhibition is half-maximal.

Take `COC(=O)c1cc2ccc3c(Br)c(CN4CCOCC4)[se]c3c2oc1=O` [Compound I-9, Methyl 7-bromo-8-(morpholinomethyl)-2-oxo-2H-selenopheno[3,2-h]chromene-3-carboxylate]: the “Anticancer activity in vivo (inhibition, %), CCL-8 tumor volume” value in data set [1] is given as 38** %. Further, the LD50 at 24 h in data set [2] is 2400 µmol/kg and 1250 mg/kg. For the same compound, the IC50 at 24 h in [2] came out at 56 ± 3 µM. The “Toxicity against normal NIH 3T3 cells” value in [3] is reported as “the most toxic among studied chromenes”. For the same compound, the IC50 came out at 54 ± 7 µM in [4] (MTT); 86 ± 6 µM in data set [5] (HT-1080, MTT, 72 h); 48 ± 3 µM in the data set on MG-22A (mouse hepatoma) (MTT); 90 ± 6 µM in data set [6] (HepG2, MTT, 72 h); 46 ± 9 µM in data set [7] (MTT); 86 ± 6 µM in data set [8] (MTT, 72 h). Also, the IC50 in data set [9] (MCF7, MTT, 72 h) was 81 ± 6 µM; in [10] (MTT) it was 67 ± 8 µM; in the data set on CCL-8 (mouse sarcoma) (MTT), 84 ± 6 µM. Moreover, the “Cytotoxicity on cancer cell lines” value in the data set on malignant tumor cells is listed as “medium cytotoxicity”.
As to `CN1CCN(Cc2[se]c3c(ccc4cc(C(=O)O)c(=O)oc43)c2Br)CC1.Cl` [Compound I-15, 7-Bromo-8-/(4-methylpiperazin-1-yl/methyl)-2-oxo-2H-selenopheno[3,2-h]chromene-3-carboxylic acid hydrochloride], the Spleen weight increase with 4T1 carcinoma cells (dose 20 mg/kg) stood at 55%; in the data set with 4T1 carcinoma cells (dose 40 mg/kg), 14%. The “Prevention of formation of 4T1 carcinoma lung metastasis” value with 4T1 carcinoma cells (five mice per group) came to 98%. In addition, the “% of the total area occupied by metastases, % (control = 100)” value with 4T1 carcinoma cells (20 mg/kg) is on record as 4* %; with 4T1 carcinoma cells (40 mg/kg), 1* %. Moreover, the “% of the total area occupied by metastases, Mean ± SD” value in the data set with 4T1 carcinoma cells (20 mg/kg, control 50 ± 33) is listed as 2 ± 2%; with 4T1 carcinoma cells (40 mg/kg), 0 ± 1%. The LD50 at 24 h in data set [2] was 3200 µmol/kg and 1670 mg/kg. The IC50 at 24 h in data set [2] amounted to 192 ± 7 µM. Further, the IC50 was over 117 µM in [4]; over 192 µM in data set [5] (HT-1080, 72 h); 186 ± 7 µM with MG-22A (mouse hepatoma); over 192 µM in data set [6] (HepG2, 72 h); over 192 µM in data set [7]; over 192 µM in data set [8]. Further, the IC50 in data set [9] (MCF7, 72 h) is over 192 µM; in data set [10], over 122 µM; with CCL-8 (mouse sarcoma), over 122 µM. In the data set on malignant tumor cells, the “Cytotoxicity on cancer cell lines” value is “low toxic to the cancer cell lines”.
